Read-outs that look alike come from different tables or passages of the source.
Legend:
[1] = target: BSEP (Homo sapiens, UniProt O95342); assay: Transporter inhibition assay, BSEP
[2] = target: MRP2 (Homo sapiens, UniProt Q92887); assay: Transporter inhibition assay, MRP2
[3] = target: T1, OATP2B1 (Homo sapiens, UniProt O94956); assay: Transporter inhibition assay, OATP2B1; details: for inhibition at 100 μM: cell line (HEK293 or MDCKII) stably expressing OATP2B1
T1 sequence (O94956 1-709): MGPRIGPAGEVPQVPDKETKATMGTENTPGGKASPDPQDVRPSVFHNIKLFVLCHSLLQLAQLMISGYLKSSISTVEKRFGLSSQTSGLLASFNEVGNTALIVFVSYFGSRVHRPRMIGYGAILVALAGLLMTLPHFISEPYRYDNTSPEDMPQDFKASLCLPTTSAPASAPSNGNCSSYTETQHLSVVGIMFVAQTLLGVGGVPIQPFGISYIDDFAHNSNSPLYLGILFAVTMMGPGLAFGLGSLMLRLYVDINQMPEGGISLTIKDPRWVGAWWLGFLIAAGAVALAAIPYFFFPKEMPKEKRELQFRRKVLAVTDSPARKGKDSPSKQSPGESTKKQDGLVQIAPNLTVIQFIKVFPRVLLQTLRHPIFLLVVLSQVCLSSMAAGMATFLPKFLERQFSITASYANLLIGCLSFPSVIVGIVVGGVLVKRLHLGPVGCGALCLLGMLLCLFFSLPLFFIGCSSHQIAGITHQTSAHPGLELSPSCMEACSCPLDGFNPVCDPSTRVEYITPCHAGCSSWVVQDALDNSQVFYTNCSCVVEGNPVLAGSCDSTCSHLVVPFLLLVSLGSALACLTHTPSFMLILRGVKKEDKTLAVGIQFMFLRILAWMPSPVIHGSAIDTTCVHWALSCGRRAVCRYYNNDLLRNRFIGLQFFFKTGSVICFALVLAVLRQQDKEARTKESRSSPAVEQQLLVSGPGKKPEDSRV

[4] = target: MRP3 (Homo sapiens, UniProt O15438); assay: Transporter inhibition assay, MRP3
[5] = target: T2, BCRP (Homo sapiens, UniProt Q9UNQ0); assay: Vesicular transport inhibition assay, BCRP
T2 sequence (Q9UNQ0 1-655): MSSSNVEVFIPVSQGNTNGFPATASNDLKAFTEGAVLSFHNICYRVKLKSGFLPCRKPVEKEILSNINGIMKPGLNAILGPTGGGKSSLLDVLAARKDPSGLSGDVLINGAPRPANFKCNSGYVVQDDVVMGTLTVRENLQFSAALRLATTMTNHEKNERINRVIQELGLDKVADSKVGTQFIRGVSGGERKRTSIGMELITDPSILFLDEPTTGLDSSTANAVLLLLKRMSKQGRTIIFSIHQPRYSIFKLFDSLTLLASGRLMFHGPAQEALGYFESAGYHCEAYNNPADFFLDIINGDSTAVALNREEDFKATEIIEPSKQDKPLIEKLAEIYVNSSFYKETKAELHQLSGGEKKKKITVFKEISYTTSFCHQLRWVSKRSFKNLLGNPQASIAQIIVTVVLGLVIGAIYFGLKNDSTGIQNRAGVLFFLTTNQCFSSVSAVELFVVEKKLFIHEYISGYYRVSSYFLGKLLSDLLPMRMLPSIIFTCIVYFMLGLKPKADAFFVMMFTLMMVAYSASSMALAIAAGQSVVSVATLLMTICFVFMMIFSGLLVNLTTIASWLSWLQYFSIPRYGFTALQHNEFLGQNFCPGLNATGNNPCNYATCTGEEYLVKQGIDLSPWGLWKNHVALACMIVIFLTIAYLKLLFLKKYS

[6] = target: T3, OCT2 (Homo sapiens, UniProt O15244); assay: Transporter inhibition assay, OCT2
T3 sequence (O15244 1-555): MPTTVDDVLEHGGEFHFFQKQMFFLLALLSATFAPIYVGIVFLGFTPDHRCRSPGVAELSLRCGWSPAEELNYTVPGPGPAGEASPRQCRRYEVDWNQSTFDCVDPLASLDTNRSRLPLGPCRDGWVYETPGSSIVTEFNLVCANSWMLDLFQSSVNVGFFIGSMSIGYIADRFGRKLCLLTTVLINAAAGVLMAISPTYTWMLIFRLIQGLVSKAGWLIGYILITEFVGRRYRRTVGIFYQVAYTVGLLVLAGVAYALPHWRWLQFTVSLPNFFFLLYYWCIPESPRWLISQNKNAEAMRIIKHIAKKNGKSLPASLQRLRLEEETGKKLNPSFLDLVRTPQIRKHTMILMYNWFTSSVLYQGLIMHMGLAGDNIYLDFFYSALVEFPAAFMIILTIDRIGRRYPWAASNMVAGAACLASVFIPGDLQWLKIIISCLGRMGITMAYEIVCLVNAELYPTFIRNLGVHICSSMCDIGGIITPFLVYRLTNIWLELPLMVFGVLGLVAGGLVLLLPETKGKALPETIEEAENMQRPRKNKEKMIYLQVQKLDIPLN

[7] = target: T4, OAT3 (Homo sapiens, UniProt Q8TCC7); assay: Transporter inhibition assay, OAT3
T4 sequence (Q8TCC7 1-542): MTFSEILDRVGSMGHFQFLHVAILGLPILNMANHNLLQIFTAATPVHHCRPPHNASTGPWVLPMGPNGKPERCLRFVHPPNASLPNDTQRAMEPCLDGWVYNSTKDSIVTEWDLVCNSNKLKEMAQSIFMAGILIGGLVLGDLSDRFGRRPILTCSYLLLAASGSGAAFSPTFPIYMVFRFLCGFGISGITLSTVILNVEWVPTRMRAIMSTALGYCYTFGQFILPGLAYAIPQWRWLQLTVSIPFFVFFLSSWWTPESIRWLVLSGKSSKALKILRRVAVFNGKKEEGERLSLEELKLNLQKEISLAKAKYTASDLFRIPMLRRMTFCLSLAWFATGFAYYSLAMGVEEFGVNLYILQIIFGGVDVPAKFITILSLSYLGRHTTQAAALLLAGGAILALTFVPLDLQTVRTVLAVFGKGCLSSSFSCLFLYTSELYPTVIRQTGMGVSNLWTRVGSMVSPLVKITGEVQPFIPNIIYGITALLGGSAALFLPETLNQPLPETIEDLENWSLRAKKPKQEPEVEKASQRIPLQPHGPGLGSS

BSEP, sequence (O95342 whole entry): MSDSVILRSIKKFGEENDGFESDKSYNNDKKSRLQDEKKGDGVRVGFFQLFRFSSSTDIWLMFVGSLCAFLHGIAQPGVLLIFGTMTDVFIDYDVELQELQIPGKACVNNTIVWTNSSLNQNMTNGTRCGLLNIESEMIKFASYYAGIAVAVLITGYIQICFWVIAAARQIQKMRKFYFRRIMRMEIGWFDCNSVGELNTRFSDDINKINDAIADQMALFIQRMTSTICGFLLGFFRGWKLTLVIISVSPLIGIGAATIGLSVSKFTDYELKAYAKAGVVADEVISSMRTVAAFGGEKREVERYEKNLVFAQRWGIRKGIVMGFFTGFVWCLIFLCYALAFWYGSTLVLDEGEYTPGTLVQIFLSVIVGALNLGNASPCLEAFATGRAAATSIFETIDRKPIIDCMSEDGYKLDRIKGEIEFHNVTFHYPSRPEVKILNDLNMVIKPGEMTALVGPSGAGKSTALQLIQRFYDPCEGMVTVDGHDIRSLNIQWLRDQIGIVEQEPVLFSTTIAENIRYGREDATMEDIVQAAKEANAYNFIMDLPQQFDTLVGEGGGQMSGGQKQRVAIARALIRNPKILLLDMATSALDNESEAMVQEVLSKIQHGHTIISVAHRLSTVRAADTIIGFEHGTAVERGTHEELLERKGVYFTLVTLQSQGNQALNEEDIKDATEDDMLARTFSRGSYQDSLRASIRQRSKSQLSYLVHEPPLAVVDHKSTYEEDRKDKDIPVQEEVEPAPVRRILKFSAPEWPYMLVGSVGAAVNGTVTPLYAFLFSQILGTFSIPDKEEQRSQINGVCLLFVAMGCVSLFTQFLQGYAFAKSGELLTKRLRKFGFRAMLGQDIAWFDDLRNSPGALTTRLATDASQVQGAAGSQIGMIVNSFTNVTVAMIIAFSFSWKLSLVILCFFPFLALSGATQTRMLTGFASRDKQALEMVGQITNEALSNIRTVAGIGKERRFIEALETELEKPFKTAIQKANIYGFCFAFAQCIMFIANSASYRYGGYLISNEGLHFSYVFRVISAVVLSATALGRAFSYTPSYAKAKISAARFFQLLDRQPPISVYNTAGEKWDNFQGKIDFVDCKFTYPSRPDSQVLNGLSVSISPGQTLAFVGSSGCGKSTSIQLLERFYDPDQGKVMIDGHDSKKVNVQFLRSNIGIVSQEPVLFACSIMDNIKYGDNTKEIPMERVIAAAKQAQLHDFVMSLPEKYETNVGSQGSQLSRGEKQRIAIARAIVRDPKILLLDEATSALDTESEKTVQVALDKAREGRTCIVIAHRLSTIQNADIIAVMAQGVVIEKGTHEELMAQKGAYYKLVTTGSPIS
MRP3, sequence (O15438 whole entry): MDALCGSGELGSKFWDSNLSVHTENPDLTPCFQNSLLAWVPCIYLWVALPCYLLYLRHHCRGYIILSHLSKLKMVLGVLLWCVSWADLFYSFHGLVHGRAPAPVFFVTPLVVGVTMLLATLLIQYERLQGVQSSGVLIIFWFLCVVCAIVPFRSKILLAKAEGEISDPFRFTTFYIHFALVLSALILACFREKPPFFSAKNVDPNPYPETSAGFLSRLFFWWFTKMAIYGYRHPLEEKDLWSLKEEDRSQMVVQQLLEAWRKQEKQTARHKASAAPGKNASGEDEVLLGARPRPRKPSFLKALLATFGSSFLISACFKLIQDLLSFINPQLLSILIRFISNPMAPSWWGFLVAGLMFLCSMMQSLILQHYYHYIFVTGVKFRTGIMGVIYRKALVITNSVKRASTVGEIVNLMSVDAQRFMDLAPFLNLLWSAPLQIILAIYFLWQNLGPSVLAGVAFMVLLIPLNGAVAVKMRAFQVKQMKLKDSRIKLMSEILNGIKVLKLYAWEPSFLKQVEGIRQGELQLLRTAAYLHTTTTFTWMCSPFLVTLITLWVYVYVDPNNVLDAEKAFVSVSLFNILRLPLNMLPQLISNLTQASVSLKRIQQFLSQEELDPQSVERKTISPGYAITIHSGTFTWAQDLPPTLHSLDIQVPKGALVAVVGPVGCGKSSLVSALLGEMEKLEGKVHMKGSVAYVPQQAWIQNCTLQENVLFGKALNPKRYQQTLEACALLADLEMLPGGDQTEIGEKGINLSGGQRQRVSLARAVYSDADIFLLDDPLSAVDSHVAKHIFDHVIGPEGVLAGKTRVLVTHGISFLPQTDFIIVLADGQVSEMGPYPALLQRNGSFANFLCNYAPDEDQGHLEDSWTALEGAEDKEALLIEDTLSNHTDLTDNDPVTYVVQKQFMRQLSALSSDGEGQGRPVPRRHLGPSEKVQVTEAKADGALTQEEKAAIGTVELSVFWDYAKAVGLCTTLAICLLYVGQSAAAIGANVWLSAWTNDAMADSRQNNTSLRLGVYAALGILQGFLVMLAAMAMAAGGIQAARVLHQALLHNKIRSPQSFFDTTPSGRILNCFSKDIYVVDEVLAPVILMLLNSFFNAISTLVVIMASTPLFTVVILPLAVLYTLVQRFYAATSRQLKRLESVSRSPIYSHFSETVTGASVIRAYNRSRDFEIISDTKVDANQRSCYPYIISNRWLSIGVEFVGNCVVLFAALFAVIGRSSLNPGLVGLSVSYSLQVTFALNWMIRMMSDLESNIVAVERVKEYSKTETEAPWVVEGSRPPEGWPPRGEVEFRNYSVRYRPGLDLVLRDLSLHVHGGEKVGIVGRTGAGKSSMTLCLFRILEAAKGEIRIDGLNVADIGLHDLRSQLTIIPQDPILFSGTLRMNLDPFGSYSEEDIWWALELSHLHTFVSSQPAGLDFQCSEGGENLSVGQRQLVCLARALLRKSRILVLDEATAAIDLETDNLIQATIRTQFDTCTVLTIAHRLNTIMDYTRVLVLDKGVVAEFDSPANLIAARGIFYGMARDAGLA
MRP2, sequence (Q92887 whole entry): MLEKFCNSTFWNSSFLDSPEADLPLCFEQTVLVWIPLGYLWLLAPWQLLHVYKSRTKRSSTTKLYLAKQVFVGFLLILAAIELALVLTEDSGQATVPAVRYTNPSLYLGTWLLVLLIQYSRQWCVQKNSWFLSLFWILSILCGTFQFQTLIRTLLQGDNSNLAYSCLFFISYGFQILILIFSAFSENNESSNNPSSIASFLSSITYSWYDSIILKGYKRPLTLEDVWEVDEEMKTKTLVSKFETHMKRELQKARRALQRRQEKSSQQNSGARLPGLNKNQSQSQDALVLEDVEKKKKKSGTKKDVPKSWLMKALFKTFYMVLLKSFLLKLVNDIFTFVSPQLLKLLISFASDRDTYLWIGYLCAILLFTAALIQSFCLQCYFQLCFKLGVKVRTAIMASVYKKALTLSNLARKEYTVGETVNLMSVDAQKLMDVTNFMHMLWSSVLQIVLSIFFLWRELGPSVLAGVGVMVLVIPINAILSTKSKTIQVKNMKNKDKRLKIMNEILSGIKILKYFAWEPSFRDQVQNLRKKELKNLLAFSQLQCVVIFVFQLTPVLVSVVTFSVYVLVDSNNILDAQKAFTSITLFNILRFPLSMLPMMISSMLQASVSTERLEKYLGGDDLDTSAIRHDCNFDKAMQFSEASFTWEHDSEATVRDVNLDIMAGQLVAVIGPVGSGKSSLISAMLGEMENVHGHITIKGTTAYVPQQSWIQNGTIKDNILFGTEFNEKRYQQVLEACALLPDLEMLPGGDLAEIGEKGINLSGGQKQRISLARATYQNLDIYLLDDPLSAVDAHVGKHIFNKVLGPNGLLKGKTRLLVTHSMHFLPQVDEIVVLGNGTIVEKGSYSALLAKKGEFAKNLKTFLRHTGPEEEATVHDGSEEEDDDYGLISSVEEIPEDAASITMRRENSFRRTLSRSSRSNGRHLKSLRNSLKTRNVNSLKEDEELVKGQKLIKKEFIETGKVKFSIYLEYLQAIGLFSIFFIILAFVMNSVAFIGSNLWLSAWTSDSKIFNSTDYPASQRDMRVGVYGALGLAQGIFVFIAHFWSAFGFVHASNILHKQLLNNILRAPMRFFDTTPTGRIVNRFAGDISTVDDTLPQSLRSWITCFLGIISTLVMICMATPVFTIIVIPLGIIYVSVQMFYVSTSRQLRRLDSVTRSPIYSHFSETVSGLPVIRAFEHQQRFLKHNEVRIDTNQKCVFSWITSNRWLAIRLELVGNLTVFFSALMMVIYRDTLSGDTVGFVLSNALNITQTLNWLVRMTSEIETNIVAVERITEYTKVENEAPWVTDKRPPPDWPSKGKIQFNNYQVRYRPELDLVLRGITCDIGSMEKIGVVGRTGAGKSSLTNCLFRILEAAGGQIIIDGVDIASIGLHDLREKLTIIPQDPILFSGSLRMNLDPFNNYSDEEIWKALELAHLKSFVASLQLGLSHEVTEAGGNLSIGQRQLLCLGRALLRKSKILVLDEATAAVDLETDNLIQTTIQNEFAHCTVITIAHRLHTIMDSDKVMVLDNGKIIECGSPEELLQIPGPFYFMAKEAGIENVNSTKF

Row | IC50 [5] [µM] | IC50 [7] [µM] | SMILES | inhibition at the highest concentration tested ([1]; BSEP, alkaloids screened at 10 and 100 μM) | inhibition at the highest concentration tested ([2]; MRP2, alkaloids screened at 10 and 100 μM) | inhibition at the highest concentration tested ([3]; OATP2B1, alkaloids screened at 10 and 100 μM) | inhibition at the highest concentration tested ([4]; MRP3, alkaloids screened at 10 and 100 μM) | IC50 ([5]; BCRP, isolated alkaloids, mean [95% CI], three technical replicates) [µM] | IC50 ([6]; OCT2, isolated alkaloids, mean [95% CI], three technical replicates) [µM] | IC50 ([7]; OAT3, isolated alkaloids, mean [95% CI], three technical replicates) [µM] | inhibition at 100 μM [1] [%] | inhibition at 100 μM [2] [%] | inhibition at 100 μM [3] [%] | inhibition at 100 μM [4] [%] | inhibition at 100 μM [5] [%] | IC50 [6] [µM] | inhibition at 100 μM ([7]; cell line (HEK293 or MDCKII) stably expressing OAT3) [%]
1 | – | – | COc1ccc2c(c1OC)C(=O)O[C@@H]2[C@H]1c2cc3c(cc2CCN1C)OCO3 [(−)-β-Hydrastine, (1R,9S)-(−)-β-Hydrastine] | -- (inhibition not observed) | -- (inhibition not observed) | -- (inhibition not observed) | -- (inhibition not observed) | 86.2 | 90 | 203 | – | – | – | – | – | – | –
2 | – | – | CN1CCc2cc3c(cc2C1O)OCO3 (stereo not drawn) [Hydrastinine, hydrastinine chloride monohydrate] | – | – | – | – | – | – | – | < 20 | < 20 | < 20 | < 20 | < 20 | 95 | < 20
3 | 180 | 79 | COc1ccc2cc3[n+](cc2c1OC)CCc1cc2c(cc1-3)OCO2 [Berberine, berberine chloride] | – | – | – | – | – | – | – | < 20 | < 20 | < 20 | < 20 | – | 45 | –

Reference: article PMC8058163 (Clinical pharmacology and therapeutics, 2020)
